This assay deals with T1, BRD9 (Homo sapiens, UniProt Q9H8M2).
T1 sequence (Q9H8M2 1-597): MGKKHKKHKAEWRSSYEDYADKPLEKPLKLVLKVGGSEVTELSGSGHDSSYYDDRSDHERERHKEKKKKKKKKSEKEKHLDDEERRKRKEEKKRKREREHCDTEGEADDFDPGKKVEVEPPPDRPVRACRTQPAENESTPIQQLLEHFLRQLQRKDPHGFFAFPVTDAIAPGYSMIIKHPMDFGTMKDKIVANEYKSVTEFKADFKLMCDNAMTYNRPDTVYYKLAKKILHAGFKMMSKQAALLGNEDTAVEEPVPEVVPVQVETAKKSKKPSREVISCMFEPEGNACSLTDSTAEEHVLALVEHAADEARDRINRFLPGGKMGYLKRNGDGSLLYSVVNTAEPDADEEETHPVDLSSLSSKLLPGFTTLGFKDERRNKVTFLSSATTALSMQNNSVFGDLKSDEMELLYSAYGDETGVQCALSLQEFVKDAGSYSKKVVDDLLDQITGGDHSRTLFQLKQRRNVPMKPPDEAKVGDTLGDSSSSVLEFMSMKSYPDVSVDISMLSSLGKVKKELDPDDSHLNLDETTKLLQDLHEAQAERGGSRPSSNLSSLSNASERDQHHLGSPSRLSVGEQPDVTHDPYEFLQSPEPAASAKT
The experiment in a line: Degradation of BRD9 (IF), immunofluorescence in MV4-11 cells, 24 hours (Assay Protocol 2). Also noted: A suspension of MV4-11 cells (ATCC CRL-9591) was prepared; host or cells: MV4-11. To be noted: BRD9 degradation; for DC50: Assay protocol 2, read-out: DC50; for Dmax: MV4-11, Assay protocol 2, read-out: Dmax. The assay is classed as cell-based. In a few lines:
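MV4-11 cells treated with compound 24 h at 37° C., then fixed, permeabilised and immunostained for BRD9 (anti-BRD9 E4Q3F, Alexa 647 secondary, Hoechst counterstain). High-content imaging quantified nuclear BRD9 signal; % BRD9 remaining normalised to DMSO and 100 nM CFT-8634 controls.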

Turning to `COc1cc(-c2cn(C)c(=O)c(C)c2C)cc(OC)c1CN1CCN(Cc2cccc3c2CCN(C(=O)/C(C#N)=C/C2CCCC2)C3C)CC1` (mixture of isomers) [Compound B90, (E/Z)-3-cyclopentyl-2-(5-((4-(2,6-dimethoxy-4-(1,4,5-trimethyl-6-oxo-1,6-dihydropyridin-3-yl)benzyl)piperazin-1-yl)methyl)-1-methyl-1,2,3,4-tetrahydroisoquinoline-2-carbonyl)acrylonitrile], the DC50 lay in the range of 10 to 25 nM and the greatest degradation seen (Dmax) was 40 to 70%.

Take `COc1cc(-c2cn(C)c(=O)c(C)c2C)cc(OC)c1CN1CCN(Cc2cccc3c2CCN(C(=O)/C(C#N)=C/C(C)(C)C)C3C2CC2)C2(CC2)C1` (mixture of isomers) [Compound C16, (E/Z)-2-(1-cyclopropyl-5-((7-(2,6-dimethoxy-4-(1,4,5-trimethyl-6-oxo-1,6-dihydropyridin-3-yl)benzyl)-4,7-diazaspiro[2.5]octan-4-yl)methyl)-1,2,3,4-tetrahydroisoquinoline-2-carbonyl)-4,4-dimethylpent-2-enenitrile]: the half-maximal degradation concentration (DC50) is less than 1.25 nM and the Dmax was greater than 75%.

In the case of `COc1cc(-c2cn(C)c(=O)c(C)c2C)cc(OC)c1CN1CCN(Cc2cccc3c2CCN(C(=O)/C(C#N)=C/C(C)(C)C)[C@H]3C(C)C)C2(CC2)C1` (single isomer, unassigned) [Compound C78, (E/Z)-2-(5-((7-(2,6-dimethoxy-4-(1,4,5-trimethyl-6-oxo-1,6-dihydropyridin-3-yl)benzyl)-4,7-diazaspiro[2.5]octan-4-yl)methyl)-1-isopropyl-1,2,3,4-tetrahydroisoquinoline-2-carbonyl)-4,4-dimethylpent-2-enenitrile], the DC50 was less than 1.25 nM and the maximal degradation (Dmax) is greater than 75%.

For the molecule `COc1cc(-c2cn(C)c(=O)c(C)c2C)cc(OC)c1CN1CCN(Cc2cccc3c2CCN(C(=O)/C(C#N)=C/C(C)(C)C)[C@H]3C)CC12CC2` (single isomer, unassigned) [Compound C4, (E/Z)-2-(5-((4-(2,6-dimethoxy-4-(1,4,5-trimethyl-6-oxo-1,6-dihydropyridin-3-yl)benzyl)-4,7-diazaspiro[2.5]octan-7-yl)methyl)-1-methyl-1,2,3,4-tetrahydroisoquinoline-2-carbonyl)-4,4-dimethylpent-2-enenitrile], the 50% degradation concentration (DC50) was 1.25 to 10 nM and the greatest degradation seen (Dmax) was greater than 75%.

Consider `COc1cc(-c2cn(C)c(=O)c(C)c2C)cc(OC)c1CN(C)Cc1ccc2c(c1)[C@@H](C(C)C)N(C(=O)/C(C#N)=C/C(C)(C)C)CC2` (single isomer, unassigned) [Compound C89], for which the 50% degradation concentration (DC50) was 10 to 25 nM and the greatest degradation seen (Dmax) lay in the range of 40 to 70%.

Regarding `COc1cc(-c2cn(C)c(=O)c(C)c2C)cc(OC)c1CN1CCN(Cc2cccc3c2CCN(C(=O)/C(C#N)=C/c2cnc(C)cn2)C3C)CC1` (mixture of isomers) [Compound B89, (E/Z)-2-(5-((4-(2,6-dimethoxy-4-(1,4,5-trimethyl-6-oxo-1,6-dihydropyridin-3-yl)benzyl)piperazin-1-yl)methyl)-1-methyl-1,2,3,4-tetrahydroisoquinoline-2-carbonyl)-3-(5-methylpyrazin-2-yl)acrylonitrile], the DC50 is less than 1.25 nM and the Dmax was greater than 75%.

For the molecule `COc1cc(-c2cn(C)c(=O)c(C)c2C)cc(OC)c1CN1CCN(Cc2ccc3c(c2)[C@@H](C)N(C(=O)/C(C#N)=C/C(C)(C)C)CC3)C2(CC2)C1` (single isomer, unassigned) [Compound C35, (E/Z)-2-(7-((7-(2,6-dimethoxy-4-(1,4,5-trimethyl-6-oxo-1,6-dihydropyridin-3-yl)benzyl)-4,7-diazaspiro[2.5]octan-4-yl)methyl)-1-methyl-1,2,3,4-tetrahydroisoquinoline-2-carbonyl)-4,4-dimethylpent-2-enenitrile], the DC50 is less than 1.25 nM and the Dmax is greater than 75%.

`COc1cc(-c2cn(C)c(=O)c(C)c2C)cc(OC)c1CN1CCN(Cc2cccc3c2CCN(C(=O)/C(C#N)=C/C(C)(C)F)[C@H]3C)C2(CC2)C1` (mixture of isomers) [Compound C30]: the DC50 lay in the range of 25 to 1000 nM and the Dmax was in the range of 40 to 70%.

Take `COc1cc(-c2cn(C)c(=O)c(C)c2C)cc(OC)c1CN1C[C@H](C)N(Cc2cccc3c2CCN(C(=O)/C(C#N)=C/c2cccc(Br)n2)C3C)[C@@H](C)C1` (mixture of isomers) [Compound B110, (E/Z)-3-(6-bromopyridin-2-yl)-2-(5-(((2S,6S)-4-(2,6-dimethoxy-4-(1,4,5-trimethyl-6-oxo-1,6-dihydropyridin-3-yl)benzyl)-2,6-dimethylpiperazin-1-yl)methyl)-1-methyl-1,2,3,4-tetrahydroisoquinoline-2-carbonyl)acrylonitrile]: the DC50 lay in the range of 25 to 1000 nM and the greatest degradation seen (Dmax) lay within 40 to 70%.

In the case of `CC[C@H]1CN(Cc2c(OC)cc(-c3cn(C)c(=O)c(C)c3C)cc2OC)CCN1Cc1cccc2c1CCN(C(=O)/C(C#N)=C/C(C)(C)C)C2C` (mixture of isomers) [Compound B113, (E/Z)-2-(5-(((S)-4-(2,6-dimethoxy-4-(1,4,5-trimethyl-6-oxo-1,6-dihydropyridin-3-yl)benzyl)-2-ethylpiperazin-1-yl)methyl)-1-methyl-1,2,3,4-tetrahydroisoquinoline-2-carbonyl)-4,4-dimethylpent-2-enenitrile], the half-maximal degradation concentration (DC50) is 1.25 to 10 nM and the maximal degradation (Dmax) is greater than 75%.

As to `COc1cc(-c2cn(C)c(=O)c(C)c2C)cc(OC)c1CN1CCN(Cc2cccc3c2CCN(C(=O)/C(C#N)=C/C(C)(C)C)[C@H]3C)C2(CC2)C1` (single isomer, unassigned) [Compound B146, (E/Z)-2-(5-((7-(2,6-dimethoxy-4-(1,4,5-trimethyl-6-oxo-1,6-dihydropyridin-3-yl)benzyl)-4,7-diazaspiro[2.5]octan-4-yl)methyl)-1-methyl-1,2,3,4-tetrahydroisoquinoline-2-carbonyl)-4,4-dimethylpent-2-enenitrile], the DC50 is less than 1.25 nM and the Dmax is greater than 75%.

For `COc1cc(-c2cn(C)c(=O)c(C)c2C)cc(OC)c1CN1CCCN(Cc2cccc3c2CCN(C(=O)/C(C#N)=C/c2cccc(C(F)(F)F)n2)C3C)CC1` (mixture of isomers) [Compound B68, (E/Z)-2-(5-((4-(2,6-dimethoxy-4-(1,4,5-trimethyl-6-oxo-1,6-dihydropyridin-3-yl)benzyl)-1,4-diazepan-1-yl)methyl)-1-methyl-1,2,3,4-tetrahydroisoquinoline-2-carbonyl)-3-(6-(trifluoromethyl)pyridin-2-yl)acrylonitrile], the DC50 is less than 1.25 nM and the Dmax was greater than 75%.

Turning to `COc1cc(-c2cn(C)c(=O)c3ccsc23)cc(OC)c1CN1CCN(Cc2cccc3c2CCN(C(=O)/C(C#N)=C/c2cccc(Br)n2)C3C)C2(CC2)C1` (mixture of isomers) [Compound B108, (E/Z)-3-(6-bromopyridin-2-yl)-2-(5-((7-(2,6-dimethoxy-4-(5-methyl-4-oxo-4,5-dihydrothieno[3,2-c]pyridin-7-yl)benzyl)-4,7-diazaspiro[2.5]octan-4-yl)methyl)-1-methyl-1,2,3,4-tetrahydroisoquinoline-2-carbonyl)acrylonitrile], the half-maximal degradation concentration (DC50) was less than 1.25 nM and the maximal degradation (Dmax) is greater than 75%.

For `COc1cc(-c2cn(C)c(=O)c(C)c2C)cc(OC)c1CN1CCN(Cc2cccc3c2CCN(C(=O)/C(C#N)=C/C2(C)CCC2)C3C)CC1` (mixture of isomers) [Compound B76, (E/Z)-2-(5-((4-(2,6-dimethoxy-4-(1,4,5-trimethyl-6-oxo-1,6-dihydropyridin-3-yl)benzyl)piperazin-1-yl)methyl)-1-methyl-1,2,3,4-tetrahydroisoquinoline-2-carbonyl)-3-(1-methylcyclobutyl)acrylonitrile], the DC50 was 1.25 to 10 nM and the Dmax was 40 to 70%.

Regarding `COc1cc(-c2cn(C)c(=O)c(C)c2C)cc(OC)c1CN1CCN(Cc2cccc3c2CCN(C(=O)/C(C#N)=C/C(C)(C)CF)C3C(C)C)CC12CC2` (mixture of isomers) [Compound C25, (E/Z)-2-(5-((4-(2,6-dimethoxy-4-(1,4,5-trimethyl-6-oxo-1,6-dihydropyridin-3-yl)benzyl)-4,7-diazaspiro[2.5]octan-7-yl)methyl)-1-isopropyl-1,2,3,4-tetrahydroisoquinoline-2-carbonyl)-5-fluoro-4,4-dimethylpent-2-enenitrile], the DC50 was 1.25 to 10 nM and the maximal degradation (Dmax) was greater than 75%.

For `COc1cc(-c2cn(C)c(=O)c(C)c2C)cc(OC)c1CN1CCN(Cc2cccc3c2CCN(C(=O)/C(C#N)=C/c2cccc(F)c2F)C3C)CC1` (mixture of isomers) [Compound B91, (E/Z)-3-(2,3-difluorophenyl)-2-(5-((4-(2,6-dimethoxy-4-(1,4,5-trimethyl-6-oxo-1,6-dihydropyridin-3-yl)benzyl)piperazin-1-yl)methyl)-1-methyl-1,2,3,4-tetrahydroisoquinoline-2-carbonyl)acrylonitrile], the DC50 was 1.25 to 10 nM and the greatest degradation seen (Dmax) fell in the range of 40 to 70%.

The values above are taken from patent publication US20260092061A1, “COMPOUNDS FOR TARGETED PROTEIN DEGRADATION” (Amphista Therapeutics Limited, priority 2022, published 2026).
